For experiment [1], the system named is Human pulmonary artery endothelial cells (HPAEC). Briefly: Immunofluorescence staining of irradiated HPAECs (Example 4). It counts as cell-based. The conditions noted are these: 10 ng/mL, 12 hours before 10 Gy radiation. The procedure: (§1) Human pulmonary artery endothelial cells (HPAEC) bought from Promocell were cultured in a culture chamber at a temperature of 37° C. under a 5% CO2 condition using a medium including various growth factors necessary for growth of the vascular endothelial cell.
(§2) HPAECs were plated in 3.5 cm, 6 cm, and 10 cm culture dishes and cultured in a CO2 incubator at 37° C. so that the cells were 70% to 80% confluent. 2-Methoxyestradiol was selectively pre-treated according to the test groups. 10 Gy gamma rays (^137Cs) (Atomic Energy of Canada, LTd., Canada) were radiated at a dose of 3.81 Gy/min.
HPAECs were cultured on the cover slide, selectively pre-treated with 2-methoxyestradiolin according to test groups, and irradiated. HPAECs were then fixed in 10% neutral formalin for one day, and washed with phosphate buffered saline (PBS) before staining. After blocking with 2% bovine serum albumin (dissolved inPBS) before the first antibody reaction, VE-cadherin, hypoxia-inducible factor 1-alpha (HIF-1α), SMAD, p-SMAD2/3, and α-SMA antibodies, diluted at 1:100, were reacted at 4° C. for 16 hours. After washing with PBS, the second antibodies having fluorescent stains attached were diluted at 1:500 and reacted at 25° C. for 1 hour. The nuclei were stained with a fluorescent stain 4′,6-diamidino-2-phenylindole (DAPI). After washing with PBS, a drop of glycerol was applied to attach the stained cells to the glass slide.
Human pulmonary artery endothelial cells which received 10 Gy radiation were fixed in 10% neutral formalin, and reacted with phalloidin, CA-9, and VE-cadherin antibodies. Then, fluorescent-labeled secondary immunoglobulins were used to stain CA9, phalloidin, and VE-cadherin in red, green, and white, respectively. The cell nuclei were stained in blue using DAPI. The group received 10 Gy radiation 12 hours after treating HPAECs with 10 ng/mL 2-methoxyestradiol.

The subject of experiment [2] is pulmonary artery endothelium, C57BL/6 mouse, 16 Gy on the lung. Put plainly: Radiation-induced pulmonary fibrosis in mouse, trichrome staining of collagen (Example 5). The conditions noted are these: 150 mg/kg i.p. 1 hour before 16 Gy irradiation of the lung; compared to IR; **: P<0.01. It counts as in vivo. As for the experimental part: (§3) Tissue from a mouse was fixed in 10% neutral formalin for one day, and paraffin sections were prepared. The paraffin sections were then reacted for 5 minutes in each of xylene, and 95%, 90%, and 70% ethanol solutions in that order to deparaffinize the paraffin around the tissue for staining. For antigen activation, the tissue was soaked in a 0.1 M citric acid solution (pH 6.0) and boiled.
The tissue was then reacted in Bouin's solution for 1 minute, Weigert's hematoxylin for 10 minutes, phosphotunstic/phosphomolydic acid for 10 minutes, aniline blue for 5 minutes, and 1% acetate for 1 minute in that order. After dehydration, the tissue was sealed with a cover glass, and observed with a confocal microscope.
To observe whether the symptoms of pulmonary fibrosis induced after radiotherapy include pulmonary fibrosis of vascular endothelial cells, a C57BL/6 mouse was exposed to 16 Gy radiation on the lung. The lung was extracted from the mouse, and collagen, a protein appearing on the cross-section of aorta during the fibrosis of pulmonary artery endothelial cell, was detected by trichrome staining. The group treated with 2-methoxyestradiol was intraperitoneally injected in an amount of 150 mg/kg 1 hour before irradiation. […]

The subject of experiment [3] is pulmonary artery endothelium, mouse model with lung cancer (mutated p53 and ras), 16 Gy. Briefly: Fibrosis of vascular endothelium after irradiation in mouse model with lung cancer (Example 7). The conditions noted are these: 150 mg/kg i.p. 1 hour before 16 Gy irradiation, compared to IR. Type of experiment: in vivo. The procedure:
(§4) Tissue from a mouse was fixed in 10% neutral formalin for one day, and paraffin sections were prepared. The paraffin sections were then reacted for 5 minutes in each of xylene, and 95%, 90%, and 70% ethanol solutions in order to deparaffinize the paraffin around the tissue for staining. The tissue was then put into hematoxylin for 1 minute to stain the nucleus and washed with running water for 10 minutes, followed by dipping in eosin for 30 seconds to stain the cytoplasm. The tissue was then dipped in 50%, 70%, 90%, and 95% ethanol, and xylene in that order, and a drop of a mounting solution was applied thereto. The tissue was covered with a cover slide and observed with a microscope (Carl Zeiss Vision).
as §3
The tissue was then reacted in Bouin's solution for 1 minute, Weigert's hematoxylin for 10 minutes, phosphotunstic/phosphomolydic acid for 10 minutes, aniline blue for 5 minutes, and 1% acetate for 1 minute in that order. […]

Experiment [4] concerns p-SMAD, Smad 2/3, α-SMA in HPAECs. Put plainly: Western blot of fibrosis-related proteins in irradiated HPAECs (Example 6). Type of experiment: cell-based, human. The note with it: 12 hours before 10 Gy radiation. The procedure: as §1, §2
After the cultured cells were irradiated, specimens in which the cells were dissolved in a solution of 150 mM sodium chloride, 40 mM Tris-Cl (pH 8.0), 0.1% NP-40 were prepared to observe intracellular proteins. Sodium dodecyl sulfate polyacrylamide gel electrophoresis (SDS-PAGE) was performed on the specimens, followed by Western blot analysis. The proteins separated by electrophoresis were transferred to a nitrocellulose membrane, and the amount of protein expression was analyzed using the immunoblotting method.
In order to observe changes in the expression amount of the proteins related to HPAEC pulmonary fibrosis according to the concentrations of 2-methoxyestradiol (0.5 μM and 1 μM), the cultured HPAECs were pre-treated with 0.5 μM or 1 μM 2-methoxyestradiol and received 10 Gy radiation 12 hours later. Western blot analysis was then performed using p-SMAD, Smad 2/3, and alpha smooth muscle actin (α-SMA) antibodies. To measure a quantitative amount of the protein, Western blot was performed using β-actin antibodies.
Background: In western blotting, separated proteins are transferred to a membrane and probed.

The test system of experiment [5] is lung of a mouse model, 90 Gy irradiation. Put plainly: Radiation-induced lung tissue damage, H&E staining (Example 1). It counts as in vivo. The note with it: 60 mg/kg i.p. 1 hour before 90 Gy irradiation; 2 weeks after irradiation; compared to untreated group (IR). As for the experimental part:
as §4, with “solutions in that order to” for “solutions in order to”, “around the tissue. The tissue” for “around the tissue for staining. The tissue”
A mouse was exposed to 90 Gy radiation on the thorax in a size of 3 mm. Lung tissue from the mouse model was fixed in 10% neutral formalin, and paraffin sections were prepared. Using the hematoxylin and eosin staining method, inflammatory reactions and fibrosis of the tissue were observed. The cell nuclei were stained in blue and the cytoplasm was stained in pink. One hour before the irradiation, the mouse model received an intraperitoneal injection of 60 mg/kg 2-methoxyestradiol. Two weeks after the irradiation, inflammatory reactions and fibrosis were observed using H&E staining at the site of tissue damage.

For experiment [6], the system named is skin tissue, C57BL/6 mouse, 20 Gy on the thorax. Briefly: Radiation-induced in vivo skin damage, infiltration of inflammatory cells (Example 3). The conditions noted are these: 2 weeks after irradiation, compared to IR. As for the experimental part: as §4, with “solutions in that order to” for “solutions in order to”, “around the tissue. The tissue” for “around the tissue for staining. The tissue”
To observe whether inflammatory responses and fibrosis of skin occur during tissue damage induced after radiotherapy, a C57BL/6 mouse was exposed to 20 Gy radiation on the thorax in a size of 7 mm. Skin was extracted from the mouse, and infiltration of inflammatory cells in the skin tissue was observed. The group pre-treated with 2-methoxyestradiol (IR+pre-treatment2Me) received an intraperitoneal injection in an amount of 60 mg/kg 1 hour before the irradiation, and that post-treated with 2-methoxyestradiol (IR+post-treatment2Me) received an intraperitoneal injection in an amount of 60 mg/kg 24 hours after the irradiation.

The test system of experiment [7] is blood vessels of the skin, C57BL/6 mouse, 20 Gy on the thorax. Briefly: Radiation-induced in vivo vascular injury of skin (Example 2). The conditions noted are these: compared to untreated group (IR). As for the experimental part: Tissue from a mouse was fixed in 10% neutral formalin for one day, and paraffin sections were prepared. The paraffin sections were then reacted for 5 minutes in each of xylene, and 95%, 90%, and 70% ethanol solutions in that order to deparaffinize the paraffin around the tissue. For antigen activation, the tissue was immersed in 0.1 M citrate (pH 6.0) and brought to a boil for 30 minutes, followed by reacting with 3% hydrogen peroxide for 15 minutes. Meanwhile, the tissue was then reacted in phosphate based saline buffer (PBS, 0.1% triton x-100 included) including CD31 (abcam, 1:100 dilution) at 4° C. for 16 hours. After washing with PBS, secondary antibodies having biotin conjugated were diluted at 1:200 and incubated at room temperature for 30 minutes. Avidin biotin complex (ABC) was applied and incubated at room temperature for 30 minutes, and 3,3′-DAB(3,3′-diaminobenzidine) was added for color detection. Hematoxylin was used for counterstaining. The tissue was then dipped in 50%, 70%, 90%, and 95% ethanol, and xylene in that order, and a drop of a mounting solution was applied thereto. The tissue was covered with a cover slide and observed with a microscope (Carl Zeiss Vision).
Skin was extracted from the mouse, and vascular changes inside the skin were observed. […]

[8] abbreviates: 1 μM, decrease in particular at 1 μM.
Where [9] appears, read: post-treated: 60 mg/kg i.p. 24 hours after 20 Gy irradiation.
The mark [10] stands for this setting: pre-treated: 60 mg/kg i.p. 1 hour before 20 Gy irradiation.

Experimental findings from patent US10722526B2, “Pharmaceutical compositions for radioprotection or radiomitigation and methods for using them” (KOREA INSTITUTE OF RADIOLOGICAL & MEDICAL SCIENCES, priority 2015, dated 2020) are described below.

The structures appear in SMILES notation.

Turning to `COc1cc2c(cc1O)CC[C@@H]1[C@@H]2CC[C@]2(C)[C@@H](O)CC[C@@H]12` [2-methoxyestradiol], in experiment [1], the “CA-9 staining, immunofluorescence” value is “significant decrease”; the “VE-cadherin (white around the cell membrane), immunofluorescence” value is reported as “significant increase”; the “phalloidin staining, immunofluorescence” value is on record as “significant decrease”. Also, the “collagen stained in blue in the aortic wall, trichrome staining” value in experiment [2] is given as “significant decrease”. Besides, in experiment [3], the “collagen stained in blue around the vascular endothelium, trichrome staining” value was “significant decrease”. In experiment [4] (0.5 μM), the “Smad 2/3 expression, Western blot” value is given as “relative decrease”; the “p-SMAD expression, Western blot” value was “relative decrease”; the “α-SMA expression, Western blot” value is reported as “relative decrease”. For the same compound, in experiment [4] (setting [8]), the “Smad 2/3 expression, Western blot” value is on record as “relative decrease”; the “p-SMAD expression, Western blot” value is “relative decrease”; the “α-SMA expression, Western blot” value was “relative decrease”. Moreover, in experiment [5], the “cell infiltration (inflammatory cells) in lung tissue, H&E staining” value is reported as “significantly reduced” and the “fibrosis around blood vessels in lung tissue, H&E staining” value was “significantly reduced”. Further, the “number of infiltrated inflammatory cells inside the skin tissue” value in experiment [6] (setting [9]) was “significantly reduced”. In addition, the “number of infiltrated inflammatory cells inside the skin tissue” value in experiment [6] (setting [10]) is given as “significantly reduced”. In addition, the skin vascular injury entry in experiment [7] (setting [9]) is given as “significant reduction”. Besides, the skin vascular injury result in experiment [7] (setting [10]) is reported as “significant reduction”.
